“Also recorded” adds a separate entry of the source.
Columns and labels:
Th17n and Th17p cells = test: Seahorse assay, oxygen consumption rate; type: cell-based, mouse; details: 40 uM etomoxir
Method: FIG. 44A-44I—Differential usage of glycolysis and fatty acid oxidation by pathogenic and non-pathogenic Th17 cells. (A) A diagram of central carbon metabolism, overlaid with Compass prediction for differential potential activity between Th17p and Th17n. […] (B) Th17n, Th17p and Treg cells were differentiated as described (STAR Methods) and replated with Seahorse media at 68h for Seahorse assay. Extracellular acidification rate (ECAR) and oxygen consumption rate (OCR) are reported in response to mitostress test. (C) Th17p and Th17n cells were differentiated and harvested at 68h (left columns) or replated in fresh media with no TCR stimulation or cytokine for 15 minutes (right columns) and subject to LC/MS based metabolomics. (D) Cells were harvested as in C and pulsed with 13C-tagged glucose for 15 minutes. Shown is the ratio of 13C-tagged carbon out of the total carbon content associated with the metabolite (STAR Methods). (E) Th17n and Th17p cells were measured for their oxygen consumption rate in the presence of control or 40 uM etomoxir. […]
Seahorse assay was performed and seahorse media was prepared following manufacturer instructions (Agilent). […] Cytokine concentrations in supernatants of in vitro cultures were analyzed by the LegendPlex Mouse Th Cytokine Panel (13-plex) (BioLegend) according to the manufacturer's instructions and analyzed on a FACS LSR II (BD Biosciences).

UTX (KDM6A) = UTX (KDM6A) (Homo sapiens, UniProt O15550); details: cited from earlier work
[1] = system: other histone demethylases; details: cited from earlier work
100 protein kinases = details: at a concentration of 30 μM; cited from earlier work
KDMSA = KDMSA (Homo sapiens, UniProt P29375); details: cited from earlier work
KDMSC = KDMSC (Homo sapiens, UniProt P41229); details: cited from earlier work
KDMSB = KDMSB (Homo sapiens, UniProt Q9UGL1); details: cited from earlier work
[2] = system: Th17 cells (Th17n, Th17p); test: T cell differentiation culture and flow cytometry (intracellular cytokine and transcription factor staining, CellTrace proliferation); details: for IL-17 positive CD4 T cells / IL-17 expression: glycolysis enzyme inhibitors, non-pathogenic or pathogenic Th17 conditions, cells after one division
Method: Naïve CD4+CD44-CD62L+CD25-T cells were sorted using BD FACSAria sorter and activated with plate-bound anti-CD3 (1 μg/ml) and antiCD28 antibodies (2 μg/ml) in the presence of cytokines at a concentration of 5×10^5 cells/ml.
Naïve CD4+CD44-CD62L+CD25− T cells with or without including IL-17A.GFP+ were sorted using BD FACSAria sorter and activated with plate-bound anti-CD3 and antiCD28 antibodies (each 1 μg/ml) in the presence of cytokines at a concentration of 5×10^5 cells/ml. For T cell differentiations the following combinations of cytokines were used: pathogenic Th17 (Th17p): 25 ng/ml rmIL-6, 20 ng/ml rmIL-1b (both Miltenyi Biotec) and 20 ng/ml rmIL-23 (R&D systems); non-pathogenic Th17 (Th17n): 25 ng/ml rmIL-6 and 2 ng/ml of rhTGFb1 (Miltenyi Biotec). For differentiation experiments, cells were harvested at 72 hours and were performed in the presence or absence of 50 μM EGCG (Selleck Chemicals), 50 μM DHEA, 40 μM DCA, 10 μM Shikonin (all Sigma) as indicated.
Proliferation was assessed by staining with CellTrace Violet (Thermo Fisher Scientific) per manufacturer's instructions. All stainings were analyzed on a FACS LSR II (BD Bioscience) and using FlowJo software.

[3] = system: Th17 cells (Th17n, Th17p); test: Legendplex analysis of cytokines in culture supernatant; type: cell-based, mouse; details: glycolysis enzyme inhibitors; Th17 cell cultures
Method: Legendplex. Cytokine concentrations in supernatants of in vitro cultures were analyzed by the LegendPlex Mouse Th Cytokine Panel (13-plex) (BioLegend) according to the manufacturer's instructions and analyzed on a FACS LSR II (BD Biosciences).
Seahorse assay was performed and seahorse media was prepared following manufacturer instructions (Agilent). Cells were re-stimulated with PMA/ionomycin for four hours in the presence of brefaldin and monensin before analysis for cytokines by intracellular cytokine staining. Cytokine concentrations in supernatants of in vitro cultures were analyzed by the LegendPlex Mouse Th Cytokine Panel (13-plex) (BioLegend) according to the manufacturer's instructions and analyzed on a FACS LSR II (BD Biosciences).

[4] = system: MOG35-55 specific T cells; test: Antigen-specific recall response of draining lymph node cells to MOG35-55 (thymidine incorporation, Legendplex); type: in vivo, mouse; details: mice transferred with DHEA-treated Th17p cells
Method: FIG. 37A-37I—Targeting ODC1 and SAT1 alleviate EAE. (A) Schematics of the polyamine pathway; (B-D) The effects of chemical inhibition of ODC1 by DFMO on EAE. Wildtype mice were immunized with MOG35-55/CFA to induce experimental autoimmune encephalomyelitis and followed for clinical scoring. DFMO were provided in drinking water from day 0 for 10 days in experimental group. B, Clinical score over time. […] C, Antigen-specific cell proliferation is measured by thymidine incorporation after culturing cells isolated from draining lymph node of mice (d15 post immunization) with increasing dose of MOG35-55 peptide for 3 days. D, Flow cytometric analysis of intracellular Foxp3 expression in T cells isolated from CNS at day 15 post immunization. (E-I) The effects of genetic perturbation of SAT1. E, The effects of SAT1 deficiency on metabolome. Abundance of metabolites in the polyamine pathway were determined by LC/MS based metabolomics. Th17n and Th17p cells were differentiated in vitro from naïve cells isolated from WT or SAT1^−/− mice. (F-I) The effects of SAT1 deficiency on EAE. EAE were induced as in (B) in wildtype and SAT1^fl/flCD4^cre mice. F, Clinical score (left) and histological score (right) showing the number of CNS infiltrates show representative experiment with 5 WT and 8 CKO mice. G-H, Cells were isolated from draining lymph node of mice (d23 post immunization) and co-cultured with increasing dose of MOG35-55 peptide for 3 days. Antigen-specific cell proliferation is measured by thymidine incorporation (G) and antigen-specific cytokine secretion by legendplex (H). I, Flow cytometry analysis of intracellular transcription factor expression in CD4 T cells isolated from CNS day 15 post immunization. Linear regression analysis (b, c, f, g), two-way anova (e) and student t test (d, i) were used for statistical analysis.
FIG. 46A-46J—EGCG exacerbates and DHEA ameliorates Th17-induced EAE in vivo. 2D2 TCR-transgenic Th17 cells were adoptively transferred after differentiation in vitro in the presence of an inhibitor or vehicle as indicated. (A, C, G) Clinical outcome of EAE; (B, D) Histological score based on cell infiltrates in meninges and parenchyma of CNS; (E, F) Draining lymph node (cervical) from respective mice were isolated and pulsed with increasing dose of MOG35-55 peptide for 3 days and (E) subjected to thymidine incorporation assay; or (F) measurement of cytokine secretion by Legendplex and flow cytometry. Concentrations were normalized through division by the respective response to no antigen control (H-I) Independent pathological report of CNS isolated from mice with EAE at end point (d35 for EGCG experiments; d28 for DHEA experiment); Optic nerves were not found in the histologic section from one animal in the EGCG+IL-23 group. (J) Representative histology of spinal cord and spinal nerve roots. […] PC, posterior column; PH, posterior horn. Individual mouse numbers are indicated. […] All are H. & E., 40× objective. Three similar experiments were performed.

[5] = system: Th17n, Th17p and iTreg cells; test: Population (bulk) RNA-seq of in vitro differentiated T cells; type: cell-based, mouse
Method: (§1) RNA-seq. For population (bulk) RNA-seq, in vitro differentiated T-cells were sorted for live cells and lysed with RLT Plus buffer and RNA was extracted using the RNeasy Plus Mini Kit (Qiagen). Full-length RNA-seq libraries were prepared as previously described and paired-end sequenced (75 bp×2) with a 150 cycle Nextseq 500 high output V2 kit.
Bulk RNA-Seq and SMART-Seq2 analysis. Applicants aligned single-cell SMART-Seq2 libraries with Bowtie2, quantified TPM gene expression with RSEM, and performed QC as Applicants described in detail in a previous publication^51. This computational pipeline is a massively revised and updated version of the one originally used to analyze these libraries^19. Batch effects and other nuisance factors were normalized with a model chosen empirically with SCONE ^52. Bulk RNA-Seq were processed with a modified variant of the same pipeline. In the absence of UMIs, differentially expressed genes were called through a linear model fitted to TPM values with the limma R package and with a mean-variance trend added to the empirical bayes prior^53,54.
as §1
Bulk RNA libraries from DFMO- or vehicle-treated Th17p, Th17n, or Treg were studied with 3 replicates per condition for a total of 18 libraries as shown in FIG. 36A. Genes that are associated with a Th17 or Treg programs (orange and purple, respectively, in FIG. 36B-C) were determined by differential expression test between bulk RNA libraries of (vehicle-treated) Th17n and Th17p on one side and Treg on the other with BH-adjusted p<0.05 and absolute value of log 2 fold-change of at least 1.5. Genes associated with the Th17p or Th17n program (magenta and green, respectively, in FIG. 40A) were determined by differential expression test between bulk RNA libraries of (vehicle-treated) Th17p vs. Th17n with the same thresholds. The PCA shown in FIG. 36A was computed on the set of 3,414 that were differentially associated with Th17, Treg, Th17p, or Th17n programs by the aforementioned criteria to focus it on the subspace of the transcriptome relevant to Th17 pathogenicity phenotypes.
Applicants aligned single-cell SMART-Seq libraries with Bowtie2, quantified TPM gene expression with RSEM, and performed QC as Applicants described in detail in a previous publication (Fletcher et al., 2017). This computational pipeline is a massively revised and updated version of the one originally used to analyze these libraries (Gaublomme et al., 2015). Batch effects and other nuisance factors were normalized with a model chosen empirically with SCONE (Cole et al., 2019). Bulk RNA-Seq were processed with a modified variant of the same pipeline.
For the Smart-Seq libraries, due the absence of UMIs in the dataset, differentially expressed genes were called through a linear model _tted to TPM values with the limma R package and with a mean-variance trend added to the empirical Bayes prior (Ritchie et al., 2015). For the bulk RNA libraries, differentially expressed genes were called with limma-trend or limma-voom (Law et al., 2014) depending on the variance of library sizes, as recommended in the limma package manual (Smyth, 2019).

[6] = system: experimental autoimmune encephalomyelitis (EAE); test: Adoptive transfer EAE with 2D2 TCR-transgenic Th17 cells differentiated in the presence of inhibitor; type: in vivo, mouse
Text: For adoptive transfer EAE, naïve 2D2 transgenic T cells were sorted and differentiated into Th17n cells+/−EGCG or Th17p+/−DHEA as described for three days followed by a resting phase in the presence of IL-23 alone for 2 days. Cells were then harvested and restimulated with plate-bound anti-CD3 and anti-CD28 for 2 days prior to transfer. 2-8 million cells were transferred per mouse intravenously.
For adoptive transfer EAE, naive T cells (CD4+CD44-CD62L+CD25-) were isolated from 2D2 TCR-transgenic mice and activated with anti-CD3 ([…]) and anti-CD28 ([…]) in the presence of differentiation cytokines for 68h. Cells were rested for 2 days and restimulated with plate-bound anti-CD3 (0.5 mg/ml for pathogenic condition; […] for non-pathogenic condition) and anti-CD28 ([…]) for 2 days prior to transfer. Equal number (2 to 8 million) cells were transferred per mouse intravenously.

KDMSC, sequence (P41229 whole entry): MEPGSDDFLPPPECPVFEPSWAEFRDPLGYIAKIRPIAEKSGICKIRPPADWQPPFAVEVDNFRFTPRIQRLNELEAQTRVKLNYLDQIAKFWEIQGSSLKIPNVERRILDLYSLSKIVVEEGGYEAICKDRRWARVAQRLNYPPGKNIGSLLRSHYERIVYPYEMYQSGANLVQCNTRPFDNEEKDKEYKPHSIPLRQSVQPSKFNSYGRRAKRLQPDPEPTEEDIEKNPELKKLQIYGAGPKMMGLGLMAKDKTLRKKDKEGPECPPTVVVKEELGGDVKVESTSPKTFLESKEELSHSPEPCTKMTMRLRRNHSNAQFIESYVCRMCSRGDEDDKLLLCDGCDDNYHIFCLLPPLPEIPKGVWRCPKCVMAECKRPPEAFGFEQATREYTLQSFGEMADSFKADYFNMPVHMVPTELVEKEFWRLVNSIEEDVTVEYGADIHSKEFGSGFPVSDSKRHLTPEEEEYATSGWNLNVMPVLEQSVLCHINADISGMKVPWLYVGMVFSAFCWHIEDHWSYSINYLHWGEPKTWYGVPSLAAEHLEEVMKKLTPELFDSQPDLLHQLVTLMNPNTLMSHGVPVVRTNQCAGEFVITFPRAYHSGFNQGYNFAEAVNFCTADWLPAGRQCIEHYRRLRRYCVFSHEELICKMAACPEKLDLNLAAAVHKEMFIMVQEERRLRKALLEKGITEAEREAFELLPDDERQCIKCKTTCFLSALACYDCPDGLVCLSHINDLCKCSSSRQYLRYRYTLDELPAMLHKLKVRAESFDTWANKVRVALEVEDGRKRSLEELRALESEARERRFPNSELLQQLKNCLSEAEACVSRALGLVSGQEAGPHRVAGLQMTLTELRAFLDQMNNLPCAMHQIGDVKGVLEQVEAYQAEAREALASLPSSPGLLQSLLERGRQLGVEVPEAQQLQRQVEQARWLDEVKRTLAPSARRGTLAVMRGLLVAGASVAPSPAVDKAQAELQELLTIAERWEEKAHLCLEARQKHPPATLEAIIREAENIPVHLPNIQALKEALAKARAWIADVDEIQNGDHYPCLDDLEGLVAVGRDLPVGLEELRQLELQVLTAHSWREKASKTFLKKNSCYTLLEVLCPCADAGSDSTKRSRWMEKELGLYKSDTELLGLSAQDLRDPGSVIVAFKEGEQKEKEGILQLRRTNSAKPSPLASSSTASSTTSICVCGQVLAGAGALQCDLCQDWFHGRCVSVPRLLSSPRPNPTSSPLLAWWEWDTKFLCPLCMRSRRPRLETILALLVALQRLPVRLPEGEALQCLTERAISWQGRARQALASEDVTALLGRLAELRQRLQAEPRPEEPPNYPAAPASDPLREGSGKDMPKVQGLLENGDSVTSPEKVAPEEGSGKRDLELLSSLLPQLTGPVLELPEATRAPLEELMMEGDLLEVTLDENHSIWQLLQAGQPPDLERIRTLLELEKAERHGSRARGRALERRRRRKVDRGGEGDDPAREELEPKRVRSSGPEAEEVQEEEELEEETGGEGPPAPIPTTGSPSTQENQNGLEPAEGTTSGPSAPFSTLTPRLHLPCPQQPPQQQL
KDMSA, sequence (P29375 whole entry): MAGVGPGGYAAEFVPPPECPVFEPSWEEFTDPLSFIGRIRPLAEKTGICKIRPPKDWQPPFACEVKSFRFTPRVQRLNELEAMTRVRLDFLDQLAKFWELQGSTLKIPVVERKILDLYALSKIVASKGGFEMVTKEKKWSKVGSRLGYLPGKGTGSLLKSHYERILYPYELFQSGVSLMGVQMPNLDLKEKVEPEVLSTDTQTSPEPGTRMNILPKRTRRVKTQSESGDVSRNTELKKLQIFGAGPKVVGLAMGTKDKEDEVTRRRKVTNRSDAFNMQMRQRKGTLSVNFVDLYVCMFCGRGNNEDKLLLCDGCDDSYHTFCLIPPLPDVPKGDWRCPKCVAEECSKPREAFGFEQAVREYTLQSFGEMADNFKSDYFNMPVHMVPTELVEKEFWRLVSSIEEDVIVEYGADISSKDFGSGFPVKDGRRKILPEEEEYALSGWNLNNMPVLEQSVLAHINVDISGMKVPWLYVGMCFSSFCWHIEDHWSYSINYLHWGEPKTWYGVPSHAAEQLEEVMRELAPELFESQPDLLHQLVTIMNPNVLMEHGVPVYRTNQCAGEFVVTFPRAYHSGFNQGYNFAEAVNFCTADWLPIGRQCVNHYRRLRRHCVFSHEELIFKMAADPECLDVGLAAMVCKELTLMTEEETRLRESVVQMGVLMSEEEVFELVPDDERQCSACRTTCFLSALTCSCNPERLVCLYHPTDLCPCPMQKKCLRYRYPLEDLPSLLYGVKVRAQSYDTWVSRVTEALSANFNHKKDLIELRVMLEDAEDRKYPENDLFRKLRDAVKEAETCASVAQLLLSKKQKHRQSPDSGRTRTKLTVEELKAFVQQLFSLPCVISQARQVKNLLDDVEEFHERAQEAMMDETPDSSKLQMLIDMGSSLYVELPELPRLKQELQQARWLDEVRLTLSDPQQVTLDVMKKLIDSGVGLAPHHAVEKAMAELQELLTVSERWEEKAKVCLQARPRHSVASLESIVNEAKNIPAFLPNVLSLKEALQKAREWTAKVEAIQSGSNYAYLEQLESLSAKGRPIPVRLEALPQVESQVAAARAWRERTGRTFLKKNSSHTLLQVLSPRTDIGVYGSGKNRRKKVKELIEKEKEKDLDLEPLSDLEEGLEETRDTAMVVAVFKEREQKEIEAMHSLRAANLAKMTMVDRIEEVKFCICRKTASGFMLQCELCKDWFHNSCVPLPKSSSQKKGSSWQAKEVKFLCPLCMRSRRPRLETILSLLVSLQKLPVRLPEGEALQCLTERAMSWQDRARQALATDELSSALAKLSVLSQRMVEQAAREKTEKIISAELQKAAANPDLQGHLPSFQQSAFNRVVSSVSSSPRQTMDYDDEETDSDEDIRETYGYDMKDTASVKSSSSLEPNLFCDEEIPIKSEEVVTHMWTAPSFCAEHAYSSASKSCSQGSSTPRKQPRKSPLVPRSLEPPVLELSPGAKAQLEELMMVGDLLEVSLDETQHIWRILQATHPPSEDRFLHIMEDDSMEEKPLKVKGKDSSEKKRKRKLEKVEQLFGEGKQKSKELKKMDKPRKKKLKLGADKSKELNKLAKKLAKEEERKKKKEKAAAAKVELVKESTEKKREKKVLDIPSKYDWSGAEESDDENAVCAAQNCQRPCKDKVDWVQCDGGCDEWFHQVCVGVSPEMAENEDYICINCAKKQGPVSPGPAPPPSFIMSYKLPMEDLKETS
KDMSB, sequence (Q9UGL1 whole entry): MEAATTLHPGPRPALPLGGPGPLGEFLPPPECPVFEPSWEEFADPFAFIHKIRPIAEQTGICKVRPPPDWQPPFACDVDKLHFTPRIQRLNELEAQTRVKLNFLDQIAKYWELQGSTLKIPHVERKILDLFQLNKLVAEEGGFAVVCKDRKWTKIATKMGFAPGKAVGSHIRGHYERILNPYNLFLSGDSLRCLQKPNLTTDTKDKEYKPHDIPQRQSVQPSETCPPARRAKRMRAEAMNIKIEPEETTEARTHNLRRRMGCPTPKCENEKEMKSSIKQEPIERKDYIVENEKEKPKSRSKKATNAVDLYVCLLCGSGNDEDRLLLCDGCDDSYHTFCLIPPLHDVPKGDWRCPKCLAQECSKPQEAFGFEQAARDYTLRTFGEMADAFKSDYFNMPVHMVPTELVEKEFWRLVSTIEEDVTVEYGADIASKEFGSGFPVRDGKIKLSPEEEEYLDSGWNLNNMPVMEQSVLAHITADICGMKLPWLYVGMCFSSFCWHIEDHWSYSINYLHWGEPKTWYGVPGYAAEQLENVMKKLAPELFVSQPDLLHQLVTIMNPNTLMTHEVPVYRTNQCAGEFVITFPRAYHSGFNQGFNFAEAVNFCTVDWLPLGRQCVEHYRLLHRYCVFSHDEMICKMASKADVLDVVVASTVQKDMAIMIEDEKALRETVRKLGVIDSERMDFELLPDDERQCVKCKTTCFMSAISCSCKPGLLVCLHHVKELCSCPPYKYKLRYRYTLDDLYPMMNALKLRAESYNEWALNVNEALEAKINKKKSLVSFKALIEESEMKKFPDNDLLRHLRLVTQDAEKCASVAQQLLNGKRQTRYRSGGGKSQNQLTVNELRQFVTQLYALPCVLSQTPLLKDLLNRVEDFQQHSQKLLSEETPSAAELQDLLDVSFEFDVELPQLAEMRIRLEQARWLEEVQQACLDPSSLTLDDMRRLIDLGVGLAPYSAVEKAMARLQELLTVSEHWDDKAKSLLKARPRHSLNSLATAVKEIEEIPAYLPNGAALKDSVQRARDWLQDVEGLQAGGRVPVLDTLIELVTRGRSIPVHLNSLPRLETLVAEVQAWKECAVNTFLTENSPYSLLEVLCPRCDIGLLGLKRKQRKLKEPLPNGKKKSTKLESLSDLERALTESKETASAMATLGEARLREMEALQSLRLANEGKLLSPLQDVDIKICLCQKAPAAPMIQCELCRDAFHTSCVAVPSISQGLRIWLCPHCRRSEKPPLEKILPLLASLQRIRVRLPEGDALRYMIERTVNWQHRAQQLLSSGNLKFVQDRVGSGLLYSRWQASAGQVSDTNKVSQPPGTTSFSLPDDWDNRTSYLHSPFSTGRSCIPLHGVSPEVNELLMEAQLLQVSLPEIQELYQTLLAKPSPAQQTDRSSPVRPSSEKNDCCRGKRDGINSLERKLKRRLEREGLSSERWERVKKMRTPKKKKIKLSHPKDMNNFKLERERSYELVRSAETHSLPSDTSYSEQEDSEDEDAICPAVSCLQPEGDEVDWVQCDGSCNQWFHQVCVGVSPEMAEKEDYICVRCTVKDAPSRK

## CCOC(=O)[C@@]1(CCCCCCOc2ccc(Cl)cc2)CO1 [etomoxir]
Th17n and Th17p cells
  oxygen consumption rate: decreased

## O=C(O)CCNc1cc(N2CCc3ccccc3CC2)nc(-c2ccccn2)n1 [GSK-J1]
UTX (KDM6A)
  IC50: 0.053 µM
[1]
  IC50: > 20 µM
100 protein kinases
  inhibitory activity against 100 protein kinases: no significant inhibitory activity
KDMSA
  IC50: 6.8 µM
KDMSC
  IC50: 0.55 µM
KDMSB
  IC50: 0.17 µM

## O=C(OCC(O)CO)C(Cl)Cl (stereo not shown) [DCA, 2,3-dihydroxypropyl-dichloroacetate]
[2]
  IL-17 positive CD4 T cells / IL-17 expression: increase
[3]
  cytokine profile / cytokine production: retained their cytokine profile

## C[C@]12CC[C@H](O)CC1=CC[C@@H]1[C@@H]2CC[C@]2(C)C(=O)CC[C@@H]12 [DHEA, dehydroepiandrosterone]
[2]
  IL-17 positive CD4 T cells / IL-17 expression: decrease
[4]
  IL-2 secretion in response to MOG: increased
  antigen-specific cytokine secretion in response to MOG: no significant alterations
[5]
  IL1RN transcripts: significant decrease
  IL9 transcripts: significant decrease
[5]; Th17n cells
  pro-pathogenic transcriptional program / module: does not induce an opposite effect
[5]; Th17p
  decrease in TBX21 (Tbet) transcripts: 1 fold
[5]; Th17p cells
  pathogenic program: suppresses the pathogenic program
[5]; both Th17p and Th17n
  IL23R transcripts: significant decrease
  TBX21 transcripts: significant decrease
  decrease in IL-23R transcripts: over 3 fold
[5]; bulk RNA-Seq of d1 Th17n and Th17p cells
  position on PC1 (pathogenicity phenotype): shifted them to a less pathogenic state
[6]; EGCG on Th17n, DHEA on Th17p
  optic neuritis/perineuritis in host mice: restricted
[6]; Th17p cells differentiated with inhibitor vs vehicle
  EAE induced by Th17p cells: induced a milder form of the disease; also recorded: alleviates EAE; also recorded: reduced the severity of disease at peak of EAE; also recorded: ameliorates
[3]
  cytokine profile / cytokine production: curtailed cytokine production

## NCCCCN [putrescine]
[2]; ODC1−/− Th17 cells
  rescue by putrescine of the observed effects of ODC1−/−: rescued
[2]; Th17n cells, 2.5 mM putrescine
  reversal by putrescine of the upregulation of Foxp3 by SAT1 inhibitor: partially reversed
[2]; cells treated with DFMO, 2.5 mM putrescine
  rescue of the effect of DFMO by addition of putrescine: rescues the effect of DFMO; also recorded: completely reversed their phenotype
[2]; non-pathogenic Th17 cells
  rescue by putrescine of the effect of diminazene aceturate: rescues the effect of diminazene aceturate
  rescue of the effect of DFMO by addition of putrescine: rescues the effect of DFMO
[2]; nonpathogenic Th17 cells
  rescue by putrescine of the DFMO-induced increase in FoxP3 CD4 T cells: rescues the increase in FoxP3 CD4 T cells
[2]; pathogenic and non-pathogenic Th17 cells
  rescue of the effect of DFMO by addition of putrescine: rescues the effect of DFMO
